Source: patent US9271960B2, “Tetrahydrocarbazoles as active agents for inhibiting VEGF production by translational control” (PTC Therapeutics, Inc., priority 2004, dated 2016)
Like-named read-outs stand apart in the source and are kept apart here.

Tested on: VEGF
Test: Hypoxia-inducible endogenous VEGF expression ELISA in HeLa cells
Format: cell-based
Settings: VEGF protein by ELISA
Method: The ability of compounds of the invention to modulate hypoxia-inducible endogenous VEGF expression is analyzed as follows. VEGF protein levels are monitored by an ELISA assay (R&D Systems). Briefly, HeLa cells are cultured for 24-48 hours under hypoxic conditions (1% O2, 5% CO2, balanced with nitrogen) in the presence or absence of a compound of the invention. The conditioned media is then assayed by ELISA, and the concentration of VEGF is calculated from the standard ELISA curve of each assay.
A dose-response analysis is performed using the ELISA assay and conditions described above. A series of different concentrations (e.g., seven) are analyzed. In parallel, a dose-response cytotoxicity assay is performed using Cell Titer Glo (Promega) under the same conditions as the ELISA to ensure that the inhibition of VEGF expression is not due to cytotoxicity. Dose-response curves are plotted using percentage inhibition versus concentration of the compound, and EC50 and CC50 values are generated for each compound with the maximal inhibition set as 100% and the minimal inhibition as 0%.
Compounds 156-188 in Table 1 are commercially available. In Table 1, each of the represented compounds is followed by one to five stars.

[1] = Homo sapiens, HeLa, compounds 191-239, hypoxic conditions, read-out: ELISA Activity EC50
[2] = Homo sapiens, HeLa, compounds 1-155, hypoxic conditions (1% O2), read-out: ELISA Activity
[3] = Homo sapiens, HeLa, purchased compounds 156-188, hypoxic conditions, read-out: ELISA Activity
[4] = Homo sapiens, HeLa, purchased compounds 156-188, hypoxic conditions, read-out: ELISA EC50
[5] = purchased compounds 156-188, hypoxic conditions, read-out: ELISA Activity
[6] = purchased compounds 156-188, hypoxic conditions, read-out: ELISA EC50

COc1ccc(C2CCCCc3c2[nH]c2ccc(Cl)cc32)cc1 (centres unmarked) [Compound 229]
EC50 [1]: 10 to 40 nM

O/N=C/c1ccn(C2CCCc3c2[nH]c2ccc(Br)cc32)c1 (centres unmarked) [Compound 149, 1-(6-Bromo-2,3,4,9-tetrahydro-1H-carbazol-1-yl)-1H-pyrrole-3-carbaldehyde oxime]
EC50 [2]: 40 to 200 nM

Fc1ccccc1NC1CCCc2c1[nH]c1ccc(Br)cc21 (centres unmarked) [Compound 17, (6-Bromo-2,3,4,9-tetrahydro-1H-carbazol-1-yl)-(2-fluoro-phenyl)-amine]
EC50 [2]: < 10 nM

FC(F)(F)c1ccc(NC2CCCc3c2[nH]c2ccc(Cl)cc32)cc1 (centres unmarked) [Compound 137, (6-Chloro-2,3,4,9-tetrahydro-1H-carbazol-1-yl)-(4-trifluoromethyl-phenyl)-amine]
EC50 [2]: < 10 nM

CC(C)(C)OC(=O)n1c2c(c3cc(Br)ccc31)CCCC2=O [Compound 80, 6-Bromo-1-oxo-1,2,3,4-tetrahydro-carbazole-9-carboxylic acid tert-butyl ester]
EC50 [2]: > 1000 nM

OC(COc1ccc(C2CCCc3c2[nH]c2ccc(Cl)cc32)cc1)CN1CCSCC1 (centres unmarked) [Compound 217]
EC50 [1]: 10 to 40 nM

Brc1ccc2[nH]c3c(c2c1)CCCC3Nc1ccon1 (centres unmarked) [Compound 51, (6-Bromo-2,3,4,9-tetrahydro-1H-carbazol-1-yl)-isoxazol-3-yl-amine]
EC50 [2]: 40 to 200 nM

N#Cc1ccc(NC2CCCc3c2[nH]c2ccc(Br)cc32)cc1 (centres unmarked) [Compound 44, 4-(6-Bromo-2,3,4,9-tetrahydro-1H-carbazol-1-ylamino)-benzonitrile]
EC50 [2]: 40 to 200 nM

O=C1CCCc2c1[nH]c1ccc(Cl)cc21 [Compound 76, 6-Chloro-2,3,4,9-tetrahydro-carbazol-1-one]
EC50 [2]: > 1000 nM

Cc1ccc2[nH]c3c(c2c1)CCCC3NCCCO (centres unmarked) [Compound 177, 3-(6-Methyl-2,3,4,9-tetrahydro-1H-carbazol-1-ylamino)-propan-1-ol]
EC50 [3]: > 1000 nM | EC50 [4]: > 10000 nM

OC(COc1ccc(C2CCCc3c2[nH]c2ccc(Br)cc32)cc1)Cn1ccnn1 (centres unmarked) [Compound 202]
EC50 [1]: < 10 nM

CN1CCN(CC(O)COc2ccc(C3CCCc4c3[nH]c3ccc(Cl)cc43)cc2)CC1 (centres unmarked) [Compound 219]
EC50 [1]: 10 to 40 nM

Brc1ccc2[nH]c3c(c2c1)CCCC3c1ccc(OCCCn2ccnn2)cc1 (centres unmarked) [Compound 209]
EC50 [1]: < 10 nM

Cc1ccc2c(c1)c1c3n2CCN(C(C)c2ccccc2)C3CCC1 (centres unmarked) [Compound 179, 8-Methyl-3-(1-phenyl-ethyl)-2,3,3a,4,5,6-hexahydro-1H-pyrazino[3,2,1-jk]carbazole]
EC50 [3]: > 1000 nM | EC50 [4]: > 10000 nM

Cn1c2c(c3cc(Br)ccc31)CCCC2n1cccc1 (centres unmarked) [Compound 117, 6-Bromo-9-methyl-1-pyrrol-1-yl-2,3,4,9-tetrahydro-1H-carbazole]
EC50 [2]: > 1000 nM

C1=C(c2ccc3c(c2)c2c4n3CCN(Cc3ccccc3)C4CCC2)C2CCN1CC2 (centres unmarked) [Compound 166, 8-(1-Aza-bicyclo[2.2.2]oct-2-en-3-yl)-3-benzyl-2,3,3a,4,5,6-hexahydro-1H-pyrazino[3,2,1-jk]carbazole]
EC50 [3]: > 1000 nM | EC50 [4]: 6630 nM

Cn1c2c(c3cc(Br)ccc31)CCCC2=O [Compound 88, 6-Bromo-9-methyl-2,3,4,9-tetrahydro-carbazol-1-one]
EC50 [2]: > 1000 nM

OC(COc1ccc(C2CCCc3c2[nH]c2ccc(Cl)cc32)cc1)Cn1cncn1 (centres unmarked) [Compound 222]
EC50 [1]: 40 to 200 nM

NC1CCCc2c1[nH]c1ccc(Br)cc21 (centres unmarked) [Compound 89, 6-Bromo-2,3,4,9-tetrahydro-1H-carbazol-1-ylamine]
EC50 [2]: > 1000 nM

Cc1ccc2c(c1)c1c3n2CCCNC3CCC1 (centres unmarked) [Compound 173, 11-Methyl-1,2,3,3a,4,5,6,7-octahydro-[1,4]diazepino[3,2,1-jk]carbazole]
EC50 [3]: > 1000 nM | EC50 [4]: > 10000 nM

OC(COc1ccc(C2CCCCc3c2[nH]c2ccc(Br)cc32)cc1)CN1CCOCC1 (centres unmarked) [Compound 225]
EC50 [1]: 40 to 200 nM

Cc1nnc(C2CCCc3c2[nH]c2ccc(Br)cc32)o1 (centres unmarked) [Compound 100, 6-Bromo-1-(5-methyl-[1,3,4]oxadiazol-2-yl)-2,3,4,9-tetrahydro-1H-carbazole]
EC50 [2]: > 1000 nM

COCCN(C)CC(O)COc1ccc(C2CCCc3c2[nH]c2ccc(Br)cc32)cc1 (centres unmarked) [Compound 200]
EC50 [1]: < 10 nM

CC(=O)n1c2c(c3cc(Br)ccc31)CCCC2 [Compound 86, 1-(6-Bromo-1,2,3,4-tetrahydro-carbazol-9-yl)-ethanone]
EC50 [2]: > 1000 nM

CC(=O)N(Cc1ccccc1)C1CCCc2c1[nH]c1ccc(C)cc21 (centres unmarked) [Compound 174, N-Benzyl-N-(6-methyl-2,3,4,9-tetrahydro-1H-carbazol-1-yl)-acetamide]
EC50 [3]: > 1000 nM | EC50 [4]: > 10000 nM

CC(=O)N1CCn2c3c(c4cc(C(=O)O)ccc42)CCCC31 (centres unmarked) [Compound 184, 3-Acetyl-2.3,3a,4,5,6-hexahydro-1H-pyrazino[3,2,1-jk]carbazole-8-carboxylic acid]
EC50 [3]: > 1000 nM | EC50 [4]: > 10000 nM

Cc1ccc2[nH]c3c(c2c1)CCCC3Nc1ccccc1 (centres unmarked) [Compound 11, (6-Methyl-2,3,4,9-tetrahydro-1H-carbazol-1-yl)-phenyl-amine]
EC50 [2]: < 10 nM

Clc1ccc2[nH]c3c(c2c1)CCCC3c1ccc(OCC2CO2)cc1 (centres unmarked) [Compound 224]
EC50 [1]: < 10 nM

Brc1ccc2[nH]c3c(c2c1)CCCC3c1ccccc1 (centres unmarked) [Compound 15, 6-Bromo-1-phenyl-2,3,4,9-tetrahydro-1H-carbazole]
EC50 [2]: < 10 nM

O=C(O)c1ccn(C2CCCc3c2[nH]c2ccc(Br)cc32)c1 (centres unmarked) [Compound 113, 1-(6-Bromo-2,3,4,9-tetrahydro-1H-carbazol-1-yl)-1H-pyrrole-3-carboxylic acid]
EC50 [2]: > 1000 nM

Cc1ccc2[nH]c3c(c2c1)CCCC3NCC12CC3CC(CC(C3)C1)C2 (centres unmarked) [Compound 159, Adamantan-1-ylmethyl-(6-methyl-2,3,4,9-tetrahydro-1H-carbazol-1-yl)-amine]
EC50 [3]: 200 to 1000 nM | EC50 [4]: 360 nM

Clc1ccc2[nH]c3c(c2c1)CCCC3n1cccc1 (centres unmarked) [Compound 37, 6-Chloro-1-pyrrol-1-yl-2,3,4,9-tetrahydro-1H-carbazole]
EC50 [2]: 40 to 200 nM

O=C1CCCc2c1[nH]c1ccc(OC(F)(F)F)cc21 [Compound 73, 6-Trifluoromethoxy-2,3,4,9-tetrahydro-carbazol-1-one]
EC50 [2]: 200 to 1000 nM

NC(=O)c1ccc2[nH]c3c(c2c1)CCCC3n1cccc1 (centres unmarked) [Compound 119, 8-Pyrrol-1-yl-6,7,8,9-tetrahydro-5H-carbazole-3-carboxylic acid amide]
EC50 [2]: > 1000 nM

O=C1c2ccccc2C(=O)N1C1CCCc2c1[nH]c1ccc(Br)cc21 (centres unmarked) [Compound 41, 2-(6-Bromo-2,3,4,9-tetrahydro-1H-carbazol-1-yl)-isoindole-1,3-dione]
EC50 [2]: 40 to 200 nM

c1ccc(CN2CCn3c4c(c5ccccc53)CCCC42)cc1 (centres unmarked) [Compound 163, 3-Benzyl2,3,3a,4,5,6-hexahydro-1H-pyrazino[3,2,1-jk]carbazole]
EC50 [3]: > 1000 nM | EC50 [4]: 1790 nM

3-[(2,3,4,9-Tetrahydro- 1H-carbazol-1-ylamino)- methylene]-1,3-dihydro- indol-2-one [Compound 158]
EC50 [5]: 200 to 1000 nM | EC50 [6]: 267 nM

O=C(NC1CCCc2c1[nH]c1ccc(Br)cc21)c1ccc(C(F)(F)F)cc1 (centres unmarked) [Compound 131, N-(6-Bromo-2,3,4,9-tetrahydro-1H-carbazol-1-yl)-4-trifluoromethyl-benzamide]
EC50 [2]: 10 to 40 nM

O=C1CCCc2c1[nH]c1ccc(Br)cc21 [Compound 50, 6-Bromo-2,3,4,9-tetrahydro-carbazol-1-one]
EC50 [2]: 40 to 200 nM

Brc1ccc2[nH]c3c(c2c1)CCCC3Nc1ncccn1 (centres unmarked) [Compound 141, (6-Bromo-2,3,4,9-tetrahydro-1H-carbazol-1-yl)-pyrimidin-2-yl-amine]
EC50 [2]: < 10 nM

Clc1cccc(NC2CCCc3c2[nH]c2ccc(Br)cc32)c1 (centres unmarked) [Compound 20, (6-Bromo-2,3,4,9-tetrahydro-1H-carbol-1-yl)-(3-chloro-phenyl)-amine]
EC50 [2]: < 10 nM

O=C(NC1CCCc2c1[nH]c1ccc(Br)cc21)c1ccc([N+](=O)[O-])o1 (centres unmarked) [Compound 146, 5-Nitro-furan-2-carboxylic acid (6-bromo-2,3,4,9-tetrahydro-1H-carbazol-1-yl)-amide]
EC50 [2]: 40 to 200 nM

O=C(NC1CCCc2c1[nH]c1ccc(Cl)cc21)c1cccs1 (centres unmarked) [Compound 143, Thiophene-2-carboxylic acid (6-chloro-2,3,4,9-tetrahydro-1H-carbazol-1-yl)-amide]
EC50 [2]: 40 to 200 nM

3-(8-Cyclohexyl-1,2,3a,4,5,6- hexahydro-pyrazino[3,2,1- jk]carbazol-3-yl)-propionic acid [Compound 183]
EC50 [5]: > 1000 nM | EC50 [6]: > 10000 nM

O=C(NC1CCCc2c1[nH]c1ccc(Br)cc21)c1ccsc1 (centres unmarked) [Compound 153, Thiophene-3-carboxylic acid (6-bromo-2,3,4,9-tetrahydro-1H-carbazol-1-yl)-amide]
EC50 [2]: 40 to 200 nM

COc1ccc2[nH]c3c(c2c1)CCCC3n1cccc1 (centres unmarked) [Compound 56, 6-Methoxy-1-pyrrol-1-yl-2,3,4,9-tetrahydro-1H-carbazole]
EC50 [2]: 40 to 200 nM
